Assay results as given in the kinase profiling compilation of Christmann-Franck et al. (2016).
Blank lines part the entries; values can stand above or below the compound they belong to.

Columns and labels:
Assay in all cases: radiometric filter-binding kinase assay
[1] = target: CDK2 CCNA2 (human) (UniProt P20248+P24941)
[2] = target: CSNK2A1 (human) (UniProt P68400)
[3] = target: YES1 (human) (UniProt P07947)
[4] = target: MAP2K1 (human) (UniProt Q02750)
[5] = target: PRKCZ (human) (UniProt Q05513)
[6] = target: JAK2 JH1 JH2 (human) (UniProt O60674)
Sequence of JAK2 JH1 JH2 (human) (O60674 whole entry, looked up): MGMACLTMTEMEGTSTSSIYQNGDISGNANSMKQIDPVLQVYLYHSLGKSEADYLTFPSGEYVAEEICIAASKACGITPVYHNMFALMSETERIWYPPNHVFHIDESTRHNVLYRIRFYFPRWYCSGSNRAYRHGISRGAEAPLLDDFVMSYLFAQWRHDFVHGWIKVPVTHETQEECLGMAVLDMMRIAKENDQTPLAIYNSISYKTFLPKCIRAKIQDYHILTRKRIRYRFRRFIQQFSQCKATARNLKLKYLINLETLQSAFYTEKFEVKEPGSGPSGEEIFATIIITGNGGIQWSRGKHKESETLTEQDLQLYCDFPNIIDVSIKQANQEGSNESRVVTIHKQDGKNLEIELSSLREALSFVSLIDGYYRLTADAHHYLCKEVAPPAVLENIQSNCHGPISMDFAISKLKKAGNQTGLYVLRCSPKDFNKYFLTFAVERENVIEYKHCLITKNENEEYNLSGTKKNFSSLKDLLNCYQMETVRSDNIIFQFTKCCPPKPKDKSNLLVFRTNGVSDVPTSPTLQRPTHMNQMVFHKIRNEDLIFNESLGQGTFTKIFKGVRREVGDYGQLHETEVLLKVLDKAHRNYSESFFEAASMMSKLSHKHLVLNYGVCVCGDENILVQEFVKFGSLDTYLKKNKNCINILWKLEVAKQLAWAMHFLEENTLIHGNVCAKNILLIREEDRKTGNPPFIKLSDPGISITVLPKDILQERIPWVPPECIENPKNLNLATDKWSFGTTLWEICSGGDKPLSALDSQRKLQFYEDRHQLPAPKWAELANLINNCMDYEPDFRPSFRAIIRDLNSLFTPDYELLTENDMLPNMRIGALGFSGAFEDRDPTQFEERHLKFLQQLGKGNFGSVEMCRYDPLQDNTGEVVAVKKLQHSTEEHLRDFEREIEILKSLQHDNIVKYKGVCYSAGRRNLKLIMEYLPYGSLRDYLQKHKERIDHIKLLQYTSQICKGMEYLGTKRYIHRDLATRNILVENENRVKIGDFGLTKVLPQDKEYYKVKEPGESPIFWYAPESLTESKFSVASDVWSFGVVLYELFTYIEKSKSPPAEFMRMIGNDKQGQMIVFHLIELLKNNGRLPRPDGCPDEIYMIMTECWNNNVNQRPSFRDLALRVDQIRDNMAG

[7] = target: CaMK1 (human) (UniProt Q14012)
Sequence of CaMK1 (human) (Q14012 whole entry, looked up): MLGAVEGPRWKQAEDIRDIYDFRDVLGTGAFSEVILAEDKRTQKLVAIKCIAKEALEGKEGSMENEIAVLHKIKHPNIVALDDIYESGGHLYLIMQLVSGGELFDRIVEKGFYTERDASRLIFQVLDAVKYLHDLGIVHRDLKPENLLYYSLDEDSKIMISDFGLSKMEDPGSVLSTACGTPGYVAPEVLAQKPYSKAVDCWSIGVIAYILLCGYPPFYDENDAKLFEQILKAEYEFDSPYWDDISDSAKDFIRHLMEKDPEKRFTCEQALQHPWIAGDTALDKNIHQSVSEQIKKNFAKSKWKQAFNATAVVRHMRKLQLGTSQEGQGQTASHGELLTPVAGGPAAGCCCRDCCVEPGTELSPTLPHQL

[8] = target: DYRK1A (human) (UniProt Q13627)
[9] = target: PIM2 (human) (UniProt Q9P1W9)
Sequence of PIM2 (human) (Q9P1W9 whole entry, looked up): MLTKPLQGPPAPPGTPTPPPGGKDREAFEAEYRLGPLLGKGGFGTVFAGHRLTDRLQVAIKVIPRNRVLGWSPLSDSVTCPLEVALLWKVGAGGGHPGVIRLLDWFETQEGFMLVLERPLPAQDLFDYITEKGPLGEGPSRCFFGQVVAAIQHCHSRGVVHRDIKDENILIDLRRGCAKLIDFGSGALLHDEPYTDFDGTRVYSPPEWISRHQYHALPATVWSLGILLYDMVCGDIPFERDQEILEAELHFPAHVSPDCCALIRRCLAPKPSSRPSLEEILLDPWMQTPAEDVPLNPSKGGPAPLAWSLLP

[10] = target: PRKACA (human) (UniProt P17612)
[11] = target: MAPK10 (human) (UniProt P53779)
[12] = target: MAPK13 (human) (UniProt O15264)
[13] = target: RIPK2 (human) (UniProt O43353)
[14] = target: CHEK1 (human) (UniProt O14757)
[15] = target: MST4 (human) (UniProt Q9P289)
[16] = target: IGF1R (human) (UniProt P08069)
[17] = system: AKT2 (human), P31751 [S474D]
Sequence of AKT2 (human), P31751 [S474D] (P31751 whole entry S474D, looked up): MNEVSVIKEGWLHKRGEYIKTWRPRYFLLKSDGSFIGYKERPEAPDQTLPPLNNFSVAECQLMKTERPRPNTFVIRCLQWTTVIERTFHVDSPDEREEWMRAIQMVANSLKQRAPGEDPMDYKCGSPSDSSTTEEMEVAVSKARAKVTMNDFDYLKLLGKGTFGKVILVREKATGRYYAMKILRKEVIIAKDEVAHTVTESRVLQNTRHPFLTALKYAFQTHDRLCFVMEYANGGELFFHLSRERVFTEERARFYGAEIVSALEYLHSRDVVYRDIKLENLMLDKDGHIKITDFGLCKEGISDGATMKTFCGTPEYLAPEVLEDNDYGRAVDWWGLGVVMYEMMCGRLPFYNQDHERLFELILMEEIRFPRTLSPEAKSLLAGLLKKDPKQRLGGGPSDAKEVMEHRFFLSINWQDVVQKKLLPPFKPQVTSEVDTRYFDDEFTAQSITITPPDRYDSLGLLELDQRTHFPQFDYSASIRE

[18] = target: PHKG1 (human) (UniProt Q16816)
[19] = target: MARK3 (human) (UniProt P27448)
[20] = target: EPHB3 (human) (UniProt P54753)
[21] = target: SRC (human) (UniProt P12931)
Sequence of SRC (human) (P12931 whole entry, looked up): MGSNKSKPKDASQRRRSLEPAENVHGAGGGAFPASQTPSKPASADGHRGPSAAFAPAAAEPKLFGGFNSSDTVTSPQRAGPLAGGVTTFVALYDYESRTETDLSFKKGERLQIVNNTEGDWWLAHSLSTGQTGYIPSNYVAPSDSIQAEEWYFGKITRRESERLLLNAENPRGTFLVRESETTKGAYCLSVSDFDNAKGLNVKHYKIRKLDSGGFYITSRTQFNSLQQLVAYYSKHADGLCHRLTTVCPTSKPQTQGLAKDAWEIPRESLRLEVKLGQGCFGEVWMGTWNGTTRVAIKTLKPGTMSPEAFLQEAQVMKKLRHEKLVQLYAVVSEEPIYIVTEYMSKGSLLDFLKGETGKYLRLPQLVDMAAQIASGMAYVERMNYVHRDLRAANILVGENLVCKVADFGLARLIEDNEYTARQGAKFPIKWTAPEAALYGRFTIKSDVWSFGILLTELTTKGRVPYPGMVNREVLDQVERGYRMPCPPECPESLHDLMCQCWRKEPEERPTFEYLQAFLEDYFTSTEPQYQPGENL

[22] = target: PAK4 (human) (UniProt O96013)
[23] = target: INSR (human) (UniProt P06213)
[24] = target: MINK1 (human) (UniProt Q8N4C8)
[25] = target: INSRR (human) (UniProt P14616)
Sequence of INSRR (human) (P14616 whole entry, looked up): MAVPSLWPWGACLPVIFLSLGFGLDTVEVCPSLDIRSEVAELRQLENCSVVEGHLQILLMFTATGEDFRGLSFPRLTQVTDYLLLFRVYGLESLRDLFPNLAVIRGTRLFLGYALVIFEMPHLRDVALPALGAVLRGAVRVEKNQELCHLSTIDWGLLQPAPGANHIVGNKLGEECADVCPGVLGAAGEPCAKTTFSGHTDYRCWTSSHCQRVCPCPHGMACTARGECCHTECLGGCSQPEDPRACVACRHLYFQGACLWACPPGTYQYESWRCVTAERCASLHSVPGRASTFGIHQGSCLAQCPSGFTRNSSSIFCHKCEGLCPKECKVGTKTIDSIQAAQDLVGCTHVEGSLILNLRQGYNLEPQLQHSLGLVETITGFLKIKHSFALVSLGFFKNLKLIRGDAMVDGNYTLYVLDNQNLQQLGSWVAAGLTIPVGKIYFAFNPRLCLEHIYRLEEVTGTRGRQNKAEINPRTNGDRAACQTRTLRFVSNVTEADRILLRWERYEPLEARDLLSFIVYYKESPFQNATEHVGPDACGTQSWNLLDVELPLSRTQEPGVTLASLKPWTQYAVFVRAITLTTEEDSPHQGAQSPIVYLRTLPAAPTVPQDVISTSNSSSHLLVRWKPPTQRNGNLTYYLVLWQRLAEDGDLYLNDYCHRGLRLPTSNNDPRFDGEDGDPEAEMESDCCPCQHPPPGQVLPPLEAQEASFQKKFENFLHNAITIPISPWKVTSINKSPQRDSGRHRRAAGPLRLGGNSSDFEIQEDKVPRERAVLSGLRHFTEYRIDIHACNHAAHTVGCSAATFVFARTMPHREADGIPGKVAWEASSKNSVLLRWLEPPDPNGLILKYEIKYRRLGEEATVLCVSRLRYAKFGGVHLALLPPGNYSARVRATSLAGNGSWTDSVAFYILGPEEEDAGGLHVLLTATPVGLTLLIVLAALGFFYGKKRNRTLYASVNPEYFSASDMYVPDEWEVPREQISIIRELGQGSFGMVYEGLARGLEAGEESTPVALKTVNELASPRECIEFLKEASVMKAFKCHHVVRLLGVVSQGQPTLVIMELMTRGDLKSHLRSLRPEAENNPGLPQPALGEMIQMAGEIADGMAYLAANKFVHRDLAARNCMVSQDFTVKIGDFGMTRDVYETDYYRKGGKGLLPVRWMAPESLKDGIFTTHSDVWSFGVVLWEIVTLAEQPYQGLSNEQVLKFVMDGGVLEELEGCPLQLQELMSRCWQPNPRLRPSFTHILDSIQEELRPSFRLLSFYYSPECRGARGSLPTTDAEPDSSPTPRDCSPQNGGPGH

[26] = target: AURKB (human) (UniProt Q96GD4)
Sequence of AURKB (human) (Q96GD4 whole entry, looked up): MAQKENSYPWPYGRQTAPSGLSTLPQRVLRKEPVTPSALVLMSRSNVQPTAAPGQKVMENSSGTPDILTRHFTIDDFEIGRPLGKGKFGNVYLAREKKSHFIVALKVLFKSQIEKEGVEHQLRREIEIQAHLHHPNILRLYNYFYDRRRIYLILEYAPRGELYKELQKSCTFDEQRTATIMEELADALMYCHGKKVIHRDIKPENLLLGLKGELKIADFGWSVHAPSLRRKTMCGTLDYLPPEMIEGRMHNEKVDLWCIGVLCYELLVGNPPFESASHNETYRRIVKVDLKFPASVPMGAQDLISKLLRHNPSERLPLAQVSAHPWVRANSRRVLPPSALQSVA

[27] = system: PRKAA1 or PRKAA2 (rat); conditions: accession and sequence are those of the human protein
[28] = system: LCK (mouse); conditions: accession and sequence are those of the human protein
[29] = target: NTRK1 (human) (UniProt P04629)
[30] = target: MAP3K11 (human) (UniProt Q16584)
[31] = target: MKNK1 (human) (UniProt Q9BUB5)
Sequence of MKNK1 (human) (Q9BUB5 whole entry, looked up): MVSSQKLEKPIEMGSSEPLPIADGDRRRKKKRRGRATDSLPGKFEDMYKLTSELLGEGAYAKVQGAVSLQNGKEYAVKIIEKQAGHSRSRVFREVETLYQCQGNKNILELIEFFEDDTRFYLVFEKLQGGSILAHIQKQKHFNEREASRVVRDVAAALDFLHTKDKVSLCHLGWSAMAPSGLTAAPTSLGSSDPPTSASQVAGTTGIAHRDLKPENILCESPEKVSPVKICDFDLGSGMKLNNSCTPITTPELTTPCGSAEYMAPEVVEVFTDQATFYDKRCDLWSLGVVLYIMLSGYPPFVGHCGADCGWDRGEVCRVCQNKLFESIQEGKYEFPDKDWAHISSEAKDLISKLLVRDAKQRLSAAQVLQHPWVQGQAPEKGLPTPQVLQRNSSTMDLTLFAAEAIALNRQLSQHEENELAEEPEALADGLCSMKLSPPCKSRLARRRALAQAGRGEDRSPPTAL

[32] = target: MARK4 (human) (UniProt Q96L34)
[33] = target: MAP3K9 (human) (UniProt P80192)
[34] = target: CAMKK2 (human) (UniProt Q96RR4)
[35] = target: NUAK1 (human) (UniProt O60285)
[36] = target: SYK (human) (UniProt P43405)

residual activity ([1]; compound 10.0 µM): 86%
residual activity ([2]; compound 10.0 µM): 82%
residual activity ([3]; compound 10.0 µM): 82%
residual activity ([4]; compound 10.0 µM): 92%
residual activity ([5]; compound 10.0 µM): 95%
residual activity ([6]; compound 10.0 µM): 104%
residual activity ([7]; compound 10.0 µM): 80%
residual activity ([8]; compound 10.0 µM): 88%
residual activity ([9]; compound 10.0 µM): 94%
residual activity ([10]; compound 10.0 µM): 95%
residual activity ([11]; compound 10.0 µM): 91%
residual activity ([12]; compound 10.0 µM): 98%
residual activity ([13]; compound 10.0 µM): 91%
residual activity ([14]; compound 10.0 µM): 107%
residual activity ([15]; compound 10.0 µM): 122%
residual activity ([16]; compound 10.0 µM): 87%
residual activity ([17]; compound 10.0 µM): 82%
residual activity ([18]; compound 10.0 µM): 44%
residual activity ([19]; compound 10.0 µM): 72%
residual activity ([20]; compound 10.0 µM): 62%
residual activity ([21]; compound 10.0 µM): 86%
residual activity ([22]; compound 10.0 µM): 77%
residual activity ([23]; compound 10.0 µM): 58%
residual activity ([24]; compound 10.0 µM): 73%
residual activity ([25]; compound 10.0 µM): 104%
residual activity ([26]; compound 10.0 µM): 75%
residual activity ([27]; compound 10.0 µM): 82%
residual activity ([28]; compound 10.0 µM): 81%
residual activity ([29]; compound 10.0 µM): 95%
residual activity ([30]; compound 10.0 µM): 99%
residual activity ([31]; compound 10.0 µM): 79%
residual activity ([32]; compound 10.0 µM): 86%
residual activity ([33]; compound 10.0 µM): 75%
residual activity ([34]; compound 10.0 µM): 86%
residual activity ([35]; compound 10.0 µM): 78%
residual activity ([36]; compound 10.0 µM): 66%
Structure (SMILES): CC(C)C[C@H](NC(=O)CNC(=O)c1cc(Cl)ccc1Cl)B1OC(=O)CC(CC(=O)O)(C(=O)O)O1 (some centres undefined)

residual activity ([1]; compound 0.01 µM): 91%
residual activity ([1]; compound 0.1 µM): 81%
residual activity ([1]; compound 1.0 µM): 76%
residual activity ([2]; compound 0.01 µM): 123%
residual activity ([2]; compound 0.1 µM): 121%
residual activity ([2]; compound 1.0 µM): 133%
residual activity ([3]; compound 0.01 µM): 87%
residual activity ([3]; compound 0.1 µM): 85%
residual activity ([4]; compound 0.01 µM): 101%
residual activity ([4]; compound 0.1 µM): 21%
residual activity ([4]; compound 1.0 µM): 1%
residual activity ([5]; compound 0.01 µM): 97%
residual activity ([5]; compound 0.1 µM): 78%
residual activity ([5]; compound 1.0 µM): 105%
residual activity ([6]; compound 0.01 µM): 84%
residual activity ([6]; compound 0.1 µM): 101%
residual activity ([7]; compound 0.01 µM): 96%
residual activity ([7]; compound 0.1 µM): 96%
residual activity ([7]; compound 1.0 µM): 112%
residual activity ([8]; compound 0.01 µM): 98%
residual activity ([8]; compound 0.1 µM): 105%
residual activity ([8]; compound 1.0 µM): 101%
residual activity ([9]; compound 0.01 µM): 93%
residual activity ([9]; compound 0.1 µM): 114%
residual activity ([10]; compound 0.01 µM): 91%
residual activity ([10]; compound 0.1 µM): 99%
residual activity ([10]; compound 1.0 µM): 100%
residual activity ([11]; compound 0.01 µM): 89%
residual activity ([11]; compound 0.1 µM): 101%
residual activity ([11]; compound 1.0 µM): 107%
residual activity ([12]; compound 0.01 µM): 101%
residual activity ([12]; compound 0.1 µM): 100%
residual activity ([12]; compound 1.0 µM): 108%
residual activity ([13]; compound 0.01 µM): 104%
residual activity ([13]; compound 0.1 µM): 102%
residual activity ([13]; compound 1.0 µM): 85%
residual activity ([14]; compound 0.01 µM): 93%
residual activity ([14]; compound 0.1 µM): 93%
residual activity ([14]; compound 1.0 µM): 94%
residual activity ([15]; compound 0.01 µM): 96%
residual activity ([15]; compound 0.1 µM): 106%
residual activity ([15]; compound 1.0 µM): 86%
residual activity ([16]; compound 0.01 µM): 103%
residual activity ([16]; compound 0.1 µM): 100%
residual activity ([17]; compound 0.01 µM): 105%
residual activity ([17]; compound 0.1 µM): 103%
residual activity ([18]; compound 0.01 µM): 100%
residual activity ([18]; compound 0.1 µM): 98%
residual activity ([18]; compound 1.0 µM): 107%
residual activity ([19]; compound 0.01 µM): 98%
residual activity ([19]; compound 0.1 µM): 102%
residual activity ([19]; compound 1.0 µM): 95%
residual activity ([20]; compound 0.01 µM): 118%
residual activity ([20]; compound 0.1 µM): 130%
residual activity ([20]; compound 1.0 µM): 92%
residual activity ([21]; compound 0.01 µM): 96%
residual activity ([21]; compound 0.1 µM): 91%
residual activity ([21]; compound 1.0 µM): 86%
residual activity ([22]; compound 0.01 µM): 81%
residual activity ([22]; compound 0.1 µM): 100%
residual activity ([23]; compound 0.01 µM): 112%
residual activity ([23]; compound 0.1 µM): 116%
residual activity ([23]; compound 1.0 µM): 97%
residual activity ([24]; compound 0.01 µM): 106%
residual activity ([24]; compound 0.1 µM): 111%
residual activity ([24]; compound 1.0 µM): 102%
residual activity ([25]; compound 0.01 µM): 104%
residual activity ([25]; compound 0.1 µM): 108%
residual activity ([25]; compound 1.0 µM): 113%
residual activity ([26]; compound 0.01 µM): 90%
residual activity ([26]; compound 0.1 µM): 92%
residual activity ([26]; compound 1.0 µM): 107%
residual activity ([27]; compound 0.01 µM): 105%
residual activity ([27]; compound 0.1 µM): 105%
residual activity ([27]; compound 1.0 µM): 94%
residual activity ([28]; compound 0.01 µM): 79%
residual activity ([28]; compound 0.1 µM): 93%
residual activity ([28]; compound 1.0 µM): 69%
residual activity ([29]; compound 0.01 µM): 97%
residual activity ([29]; compound 0.1 µM): 90%
residual activity ([29]; compound 1.0 µM): 67%
residual activity ([30]; compound 0.1 µM): 102%
residual activity ([30]; compound 1.0 µM): 90%
residual activity ([31]; compound 0.01 µM): 100%
residual activity ([31]; compound 0.1 µM): 87%
residual activity ([31]; compound 1.0 µM): 55%
residual activity ([32]; compound 0.01 µM): 103%
residual activity ([32]; compound 0.1 µM): 99%
residual activity ([33]; compound 0.01 µM): 112%
residual activity ([33]; compound 0.1 µM): 117%
residual activity ([33]; compound 1.0 µM): 101%
residual activity ([34]; compound 0.01 µM): 102%
residual activity ([34]; compound 0.1 µM): 99%
residual activity ([35]; compound 0.01 µM): 93%
residual activity ([35]; compound 0.1 µM): 99%
residual activity ([35]; compound 1.0 µM): 105%
residual activity ([36]; compound 0.1 µM): 108%
residual activity ([36]; compound 1.0 µM): 85%
Structure (SMILES): COc1cc(O)c2c(c1)[C@H]1OC1C[C@H](O)[C@H](O)C(=O)/C=C\C[C@H](C)OC2=O (some centres undefined)
